Laboratory results: patent US20250052744A1, “Dyes and Uses Thereof” (The University of Liverpool, priority 2021, published 2025)

Key:
Test in all cases: Qualitative dye staining on agarose pads (EVOS M7000)
Type in all cases: cell-based
Design in all cases: key to Relative fluorescent intensity: Very high: If the cells looked twice as big in the fluorescent channel, it was marked as having “very high” relative fluorescent intensity; High: if the cells looked bigger in the fluorescent channel, it was marked as having “high” relative fluorescent intensity; Medium: If the cells looked almost the same size in the fluorescent channel and the bright field, it was marked as having “medium” relative fluorescent intensity; Low: If the cells looked smaller in the fluorescent channel as compared to the brightfield but still the whole cell was visible, it was marked as having “low” relative fluorescent intensity; Negligible: If only a few traces of a cell was visible in the fluorescent channel, it was marked as having “negligible” relative fluorescent intensity
Details in all cases: DiSC3(5) 3 μM, SYBR Green I 10×, SYTO 13 3 μM, FM4-64 15 μM
Klebsiella pneumoniae = test system: Klebsiella pneumoniae
Proteus vulgaris = test system: Proteus vulgaris
Enterococcus faecalis = test system: Enterococcus faecalis
[1] = Table 7 commercial strain Klebsiella pneumoniae NCTC 9633
[2] = Table 7 commercial strain Klebsiella pneumoniae NCTC 14335
[3] = Table 8 sample Klebsiella pneumoniae (094)
[4] = Table 8 sample Klebsiella pneumoniae (095)
[5] = Table 8 sample Proteus vulgaris (024)
[6] = Table 8 sample Proteus vulgaris (025)
[7] = Table 8 sample Proteus vulgaris (026)
[8] = Table 7 commercial strain Enterococcus faecalis NCTCT 12697
[9] = Table 8 sample Enterococcus faecalis (001)
[10] = Table 8 sample Enterococcus faecalis (002)
[11] = Table 8 sample Enterococcus faecalis (003)

Structure (SMILES)	Percentage of cells stained (Klebsiella pneumoniae; [1])	Relative fluorescent intensity (Klebsiella pneumoniae; [1])	Percentage of cells stained (Klebsiella pneumoniae; [2])	Relative fluorescent intensity (Klebsiella pneumoniae; [2])	Percentage of cells stained (Klebsiella pneumoniae; [3])	Relative fluorescent intensity (Klebsiella pneumoniae; [3])	Percentage of cells stained (Klebsiella pneumoniae; [4])	Relative fluorescent intensity (Klebsiella pneumoniae; [4])	Percentage of cells stained (Proteus vulgaris; [5])	Relative fluorescent intensity (Proteus vulgaris; [5])	Percentage of cells stained (Proteus vulgaris; [6])	Relative fluorescent intensity (Proteus vulgaris; [6])	Percentage of cells stained (Proteus vulgaris; [7])	Relative fluorescent intensity (Proteus vulgaris; [7])	Percentage of cells stained (Enterococcus faecalis; [8])	Relative fluorescent intensity (Enterococcus faecalis; [8])	Percentage of cells stained (Enterococcus faecalis; [9])	Relative fluorescent intensity (Enterococcus faecalis; [9])	Percentage of cells stained (Enterococcus faecalis; [10])	Relative fluorescent intensity (Enterococcus faecalis; [10])	other results
CCCN1C(=CC=CC=Cc2sc3ccccc3[n+]2CCC)Sc2ccccc21.[I-] [DiSC3(5), 3,3′-Dipropylthiadicarbocyanine Iodide]	Half	Low	Almost all	Low	Half	Low	Almost all	Low	Almost all	Low	Few	Medium	Almost all	Low	Half	Low	Half	Low	Half	Low	Percentage of cells stained (Enterococcus faecalis; [11]): Half; Relative fluorescent intensity (Enterococcus faecalis; [11]): Low
CCN(CC)c1ccc(C=CC=CC=Cc2cc[n+](CCC[N+](CC)(CC)CC)cc2)cc1.[Br-].[Br-] [FM 4-64, N-(3-Triethylammoniumpropyl)-4-(6-(4-(Diethylamino) Phenyl) Hexatrienyl) Pyridinium Dibromide]	Few	Low	Half	Low	Few	Low	Few	Low	Few	Negligible	Few	Negligible	Few	Negligible	Almost all	Medium	Almost all	Medium	Almost all	Medium	Percentage of cells stained (Enterococcus faecalis; [11]): Almost all; Relative fluorescent intensity (Enterococcus faecalis; [11]): Medium
CCCN(CCCN(C)C)c1cc(/C=C2/Sc3ccccc3N2C)c2ccccc2[n+]1-c1ccccc1 [SYBR Green I, N′,N′-dimethyl-N-[4-[(E)-(3-methyl-1,3-benzothiazol-2-ylidene)methyl]-1-phenylquinolin-1-ium-2-yl]-N-propylpropane-1,3-diamine]	Half	Low	Almost all	Low	Half	Low	Almost all	Low	Half	Low	Half	Low	Almost all	Low	Almost all	Medium	Almost all	Medium	Almost all	Medium	Percentage of cells stained (Enterococcus faecalis; [11]): Almost all; Relative fluorescent intensity (Enterococcus faecalis; [11]): Medium
